{"source": "patent US20150167062A1", "about": "“Genome-wide Method of Assessing Interactions Between Chemical Entities And Their Target Molecules” (Whitehead Institute for Biomedical Research, priority 2012, published 2015)", "tested_on": "MM1.S cells, merged BRD4/JQ1 genomic regions", "assay": "Specificity analysis: overlap between JQ1 Chem-Seq and BRD4 ChIP-Seq data", "type": "binding, human", "procedure": "Chemical crosslinking was terminated by addition of TRIS buffer, pH 7.5, to a final concentration of 300 mM TRIS. Cells were harvested using a silicon scraper, centrifuged and the derived pellets washed three times with PBS. Cell nuclei were prepared as follows: cells were lysed in 50 mM HEPES, pH 7.5, 140 mM NaCl, 1 mM EDTA, 10% Glycerol, 0.5% NP-40, 0.25% Triton X-100 plus protease inhibitor cocktail ‘complete’ (Roche), and cell nuclei were washed once with 10 mM Tris-HCL, pH 8.0, 200 mM NaCl, 1 mM EDTA, 0.5 mM EGTA and protease inhibitors. […] Finally, purified DNA fragments were massively parallel sequenced and the sequencing data analyzed as described (33). […]\nAll ChIP-Seq and Chem-seq datasets were aligned using Bowtie (version 0.12.2) (35) to build version NCBI36/HG18 of the human genome. […] To obtain the normalized read density of ChIP-Seq datasets in any region, ChIP-Seq reads aligning to the region were extended automatically by MACS and the density of reads per basepair (bp) was calculated. The density of reads in each region was normalized to the total number of million mapped reads producing read density in units of reads per million mapped reads per by (rpm/bp).\nChem-Seq and ChIP-Seq data was analyzed to identify genomic regions with substantial JQ 1 Chem-Seq signal but no significant BRD4 ChIP-Seq signal, reasoning these sites might represent off-target interactions of JQ1. […]", "data": [{"smiles": "Cc1sc2c(c1C)C(c1ccc(Cl)cc1)=N[C@@H](CC(=O)OC(C)(C)C)c1nnc(C)n1-2", "note": "[JQ1]", "values": [{"measurement": "Off-target interaction (JQ1 Chem-Seq signal at regions of the genome without BRD4)", "setting": "MM1.S cells, GLM differential binding analysis", "result": "no identifiable off-target interaction"}, {"measurement": "Genomic regions with significant differences in JQ1 Chem-Seq and BRD4 ChIP-Seq signals", "setting": "out of 25,060 merged regions, FDR<=0.25, MM1.S cells", "result": 10, "unit": "regions"}]}]}
